Test results published in ChEMBL document CHEMBL5096219, “Design, synthesis and biological evaluation of novel pyrazinone derivatives as PI3K/HDAC dual inhibitors” (Bioorg Med Chem, 2022).

What was measured:
[1] = biological target: Phosphatidylinositol 4,5-bisphosphate 3-kinase catalytic subunit alpha isoform (Homo sapiens, UniProt P42336); assay: Inhibition of PI3Kalpha (unknown origin) by mobility shift assay
[2] = test system: MV4-11; assay: cells; format: functional, cell-based; settings: Homo sapiens, MV4-11, 72 h
Description: Antiproliferative activity against human MV4-11 cells assessed as inhibition of cell proliferation incubated for 72 hrs by CCK8 assay

[3] = biological target: T1, Protein deacetylase HDAC6 (Homo sapiens) (UniProt Q9UBN7); settings: dose 100.0 nM
T1 sequence (whole entry): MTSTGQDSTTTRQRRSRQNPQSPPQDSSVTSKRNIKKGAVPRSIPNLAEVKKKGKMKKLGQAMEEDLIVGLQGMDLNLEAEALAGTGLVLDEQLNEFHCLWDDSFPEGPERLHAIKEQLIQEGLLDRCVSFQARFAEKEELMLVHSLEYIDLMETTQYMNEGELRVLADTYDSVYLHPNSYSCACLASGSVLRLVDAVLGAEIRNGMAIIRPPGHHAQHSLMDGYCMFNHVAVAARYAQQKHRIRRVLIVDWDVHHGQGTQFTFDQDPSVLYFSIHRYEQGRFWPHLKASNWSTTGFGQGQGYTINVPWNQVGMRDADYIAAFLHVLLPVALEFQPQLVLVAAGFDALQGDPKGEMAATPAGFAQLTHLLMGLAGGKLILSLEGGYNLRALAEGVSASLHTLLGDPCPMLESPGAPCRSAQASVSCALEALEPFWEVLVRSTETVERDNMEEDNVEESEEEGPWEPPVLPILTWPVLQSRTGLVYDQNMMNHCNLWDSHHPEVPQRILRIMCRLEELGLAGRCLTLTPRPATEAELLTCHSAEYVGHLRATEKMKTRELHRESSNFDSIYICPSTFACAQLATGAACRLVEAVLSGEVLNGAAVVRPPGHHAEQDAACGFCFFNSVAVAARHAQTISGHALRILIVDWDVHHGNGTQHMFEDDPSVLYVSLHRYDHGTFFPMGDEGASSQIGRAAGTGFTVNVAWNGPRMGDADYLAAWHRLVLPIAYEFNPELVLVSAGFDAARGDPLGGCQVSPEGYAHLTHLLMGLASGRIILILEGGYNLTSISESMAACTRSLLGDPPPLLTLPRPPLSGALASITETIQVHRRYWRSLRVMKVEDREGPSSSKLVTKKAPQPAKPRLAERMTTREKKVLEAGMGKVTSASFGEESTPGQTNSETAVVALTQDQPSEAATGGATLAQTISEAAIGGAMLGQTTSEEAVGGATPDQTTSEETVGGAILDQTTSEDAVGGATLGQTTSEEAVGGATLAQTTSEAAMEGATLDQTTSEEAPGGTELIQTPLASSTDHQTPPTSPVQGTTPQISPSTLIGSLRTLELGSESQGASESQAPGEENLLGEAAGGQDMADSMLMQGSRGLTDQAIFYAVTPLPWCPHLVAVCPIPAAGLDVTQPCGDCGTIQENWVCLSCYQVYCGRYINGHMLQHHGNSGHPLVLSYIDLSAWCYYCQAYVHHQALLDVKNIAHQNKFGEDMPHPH
Description: Inhibition of HDAC6 (unknown origin) at 100 nM

[4] = test system: HL-60; assay: cells; format: functional, cell-based; settings: Homo sapiens, HL-60, 72 h
Description: Antiproliferative activity against human HL-60 cells assessed as inhibition of cell proliferation incubated for 72 hrs by CCK8 assay

[5] = biological target: T2, Protein deacetylase HDAC6 (Homo sapiens, UniProt Q9UBN7); assay: Inhibition of HDAC6 (unknown origin)
T2 sequence (Q9UBN7 whole entry): T1 sequence (whole entry)

[6] = test system: K562; assay: cells; format: functional, cell-based; settings: Homo sapiens, K562, 72 h
Description: Antiproliferative activity against human K562 cells assessed as inhibition of cell proliferation incubated for 72 hrs by CCK8 assay

[7] = test system: MV4-11; assay: Induction of cell cycle arrest in human MV4-11 cells assessed as accumulation of cells at G2/M phase at 1 uM incubated for 48 hrs by […]PI staining based flow cytometry (reference value: 11.5%); format: functional
[8] = test system: MV4-11; assay: Induction of apoptosis in human MV4-11 cells assessed as viable cells at 1 uM incubated for 48 hrs by Annexin V-FITC/PI staining based flow cytometry (reference value: 96.5%); format: functional; settings: read-out: Activity
[9] = test system: MV4-11; assay: Induction of apoptosis in human MV4-11 cells assessed as late apoptotic cells at 1 uM incubated for 48 hrs by Annexin V-FITC/PI staining based flow cytometry (reference value: 2.04%); format: functional
[10] = test system: MV4-11; assay: Induction of cell cycle arrest in human MV4-11 cells assessed as accumulation of cells at S phase at 1 uM incubated for 48 hrs by […]PI staining based flow cytometry (reference value: 45.5%); format: functional
[11] = test system: MV4-11; assay: Induction of cell cycle arrest in human MV4-11 cells assessed as accumulation of cells at G0/G1 phase at 1 uM incubated for 48 hrs by […]PI staining based flow cytometry (reference value: 33.1%); format: functional
[12] = test system: MV4-11; assay: Induction of apoptosis in human MV4-11 cells assessed as early apoptotic cells at 1 uM incubated for 48 hrs by Annexin V-FITC/PI staining based flow cytometry (reference value: 0.95%); format: functional
[13] = test system: MV4-11; assay: Induction of apoptosis in human MV4-11 cells assessed as necrotic cells at 1 uM incubated for 48 hrs by Annexin V-FITC/PI staining based flow cytometry (reference value: 0.51%); format: functional

Chain of Phosphatidylinositol 4,5-bisphosphate 3-kinase catalytic subunit alpha isoform (P42336 whole entry, canonical isoform): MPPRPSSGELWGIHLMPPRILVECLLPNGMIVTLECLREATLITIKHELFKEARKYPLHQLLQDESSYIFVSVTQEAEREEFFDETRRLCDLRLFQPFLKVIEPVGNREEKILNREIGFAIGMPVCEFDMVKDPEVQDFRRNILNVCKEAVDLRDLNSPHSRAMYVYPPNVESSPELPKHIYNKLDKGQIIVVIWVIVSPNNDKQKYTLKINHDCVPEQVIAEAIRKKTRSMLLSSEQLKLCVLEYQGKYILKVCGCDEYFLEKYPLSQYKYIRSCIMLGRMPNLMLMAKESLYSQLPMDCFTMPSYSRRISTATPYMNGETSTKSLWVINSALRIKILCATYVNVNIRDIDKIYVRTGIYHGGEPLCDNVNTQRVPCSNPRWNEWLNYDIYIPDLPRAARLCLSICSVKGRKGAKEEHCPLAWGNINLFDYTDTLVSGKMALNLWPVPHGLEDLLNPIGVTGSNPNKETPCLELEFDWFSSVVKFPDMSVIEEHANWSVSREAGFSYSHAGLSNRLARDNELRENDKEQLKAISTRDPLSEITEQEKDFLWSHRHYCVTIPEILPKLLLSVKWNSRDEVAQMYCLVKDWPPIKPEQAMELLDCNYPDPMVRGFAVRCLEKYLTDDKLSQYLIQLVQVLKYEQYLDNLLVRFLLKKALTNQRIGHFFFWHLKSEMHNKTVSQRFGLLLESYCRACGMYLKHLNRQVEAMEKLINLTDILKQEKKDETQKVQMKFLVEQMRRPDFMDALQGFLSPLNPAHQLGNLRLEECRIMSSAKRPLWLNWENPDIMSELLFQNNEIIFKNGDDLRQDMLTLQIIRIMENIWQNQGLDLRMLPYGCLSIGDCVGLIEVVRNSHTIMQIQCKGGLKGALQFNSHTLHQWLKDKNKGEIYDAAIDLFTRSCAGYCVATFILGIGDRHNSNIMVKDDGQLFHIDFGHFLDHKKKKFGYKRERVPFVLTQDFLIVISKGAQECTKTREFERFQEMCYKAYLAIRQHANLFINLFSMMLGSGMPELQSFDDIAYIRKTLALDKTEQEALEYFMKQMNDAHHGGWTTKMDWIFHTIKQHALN

Nc1ncc(-c2cn(CCCCCC(=O)NO)c(=O)c(N3CCOCC3)n2)cn1
IC50 [1]: 157 nM | IC50 [2]: 19700 nM | inhibition [3]: 45% | IC50 [4]: 12700 nM | IC50 [5]: 109 nM | IC50 [6]: > 50000 nM

O=C(NO)c1ccc(Cn2cc(-c3cn[nH]c3)nc(N3CCOCC3)c2=O)cc1
IC50 [5]: 30 nM

CN1CCN(c2nc(-c3cnc(N)nc3)cn(Cc3ccc(C(=O)NO)cc3)c2=O)CC1
IC50 [5]: 4.2 nM

Cc1noc(C)c1-c1cn(Cc2ccc(C(=O)NO)cc2)c(=O)c(N2CCOCC2)n1
IC50 [5]: 32 nM

CCCn1cc(-c2cnc(N)nc2)nc(N2CCOCC2)c1=O
IC50 [1]: 25 nM

Nc1ncc(-c2cc(N3CCOCC3)c(=O)n(Cc3ccc(C(=O)NO)cc3)n2)cn1
inhibition [3]: 94% | IC50 [5]: 13 nM

Nc1ncc(-c2cn(Cc3ccc(C(=O)NO)cc3)c(=O)c(Nc3ccccc3)n2)cn1
IC50 [5]: 6.9 nM

Nc1ccc(-c2cn(Cc3ccc(C(=O)NO)cc3)c(=O)c(N3CCOCC3)n2)cn1
inhibition [3]: 91% | IC50 [5]: 12 nM

Nc1ncc(-c2cc(N3CCOCC3)c(=O)n(Cc3ccc(C(=O)NO)cc3)c2)cn1
inhibition [3]: 95% | IC50 [5]: 20 nM

O=C(NO)c1ccc(Cn2cc(-c3cncnc3)nc(N3CCOCC3)c2=O)cc1
inhibition [3]: 69% | IC50 [5]: 35 nM

Nc1ncc(-c2cn(CCCCCCCC(=O)NO)c(=O)c(N3CCOCC3)n2)cn1
IC50 [1]: 278 nM | IC50 [2]: 1520 nM | inhibition [3]: 27% | IC50 [4]: 9870 nM | IC50 [5]: 194 nM | IC50 [6]: 4560 nM

Nc1ncc(-c2cn(CCCCCCC(=O)NO)c(=O)c(N3CCOCC3)n2)cn1
IC50 [1]: 127 nM | IC50 [2]: 1980 nM | inhibition [3]: 73% | IC50 [4]: 18400 nM | IC50 [5]: 54 nM | IC50 [6]: 3840 nM

Nc1ncc(-c2cn(Cc3ccc(C(=O)NO)cc3)c(=O)c(N3CCCCC3)n2)cn1
IC50 [5]: 4.2 nM

Nc1ncc(-c2cn(Cc3ccc(C(=O)NO)cc3)c(=O)c(N3CCOCC3)n2)cn1
IC50 [1]: 197 nM | IC50 [2]: 4850 nM | inhibition [3]: 92% | IC50 [4]: 21000 nM | IC50 [5]: 15 nM | IC50 [6]: 13800 nM

Nc1cc(C(F)(F)F)c(-c2cc(N3CCOCC3)nc(N3CCOCC3)n2)cn1 [BUPARLISIB]
Activity [7]: 9.96% | viability at 1 µM [8]: 89% | Activity [9]: 6.42% | IC50 [2]: 730 nM | IC50 [4]: 1510 nM | Activity [10]: 34.7% | Activity [11]: 48.1% | Activity [12]: 1.37% | IC50 [6]: 730 nM | Activity [13]: 3.19%

Cn1cc(-c2cn(Cc3ccc(C(=O)NO)cc3)c(=O)c(N3CCOCC3)n2)cn1
IC50 [5]: 21 nM

Nc1ncc(-c2cn(Cc3cccc(C(=O)NO)c3)c(=O)c(N3CCOCC3)n2)cn1
IC50 [5]: 650 nM

CNc1ncc(-c2cn(Cc3ccc(C(=O)NO)cc3)c(=O)c(N3CCOCC3)n2)cn1
IC50 [1]: 336 nM | IC50 [2]: 1370 nM | IC50 [4]: 4290 nM | IC50 [5]: 9.1 nM | IC50 [6]: 6120 nM

COC1CCN(c2nc(-c3cnc(N)nc3)cn(Cc3ccc(C(=O)NO)cc3)c2=O)CC1
IC50 [5]: 7.4 nM

O=C(CCCCCCC(=O)Nc1ccccc1)NO [VORINOSTAT]
Activity [7]: 28.6% | viability at 1 µM [8]: 76.1% | Activity [9]: 12.9% | Activity [10]: 5.62% | Activity [11]: 43.2% | Activity [12]: 9.99% | Activity [13]: 0.93%

Nc1ccc(-c2cn(Cc3ccc(C(=O)NO)cc3)c(=O)c(N3CCOCC3)n2)cc1
inhibition [3]: 101% | IC50 [5]: 13 nM

O=C(NO)c1ccc(Cn2cc(-c3ccoc3)nc(N3CCOCC3)c2=O)cc1
IC50 [5]: 7.9 nM

O=C(NO)c1ccc(Cn2cc(-c3ccc(O)cc3)nc(N3CCOCC3)c2=O)cc1
inhibition [3]: 94% | IC50 [5]: 14 nM

O=C(NO)c1ccc(Cn2cc(-c3cccc(CO)c3)nc(N3CCOCC3)c2=O)cc1
IC50 [2]: 70 nM | IC50 [4]: 580 nM | IC50 [5]: 14 nM | IC50 [6]: 590 nM

O=C(NO)c1ccc(Cn2cc(-c3cccnc3)nc(N3CCOCC3)c2=O)cc1
inhibition [3]: 92% | IC50 [5]: 15 nM

O=C(NO)c1ccc(Cn2cc(-c3cccc(O)c3)nc(N3CCOCC3)c2=O)cc1
IC50 [1]: 467 nM | IC50 [2]: 90 nM | inhibition [3]: 94% | IC50 [4]: 1140 nM | IC50 [5]: 23 nM | IC50 [6]: 3840 nM

O=C(NO)c1ccc(Cn2cc(-c3ccc(CO)cc3)nc(N3CCOCC3)c2=O)cc1
IC50 [5]: 15 nM
